Patent US7396837B2, “Antitumoral analogs of lamellarins” (Pharma Mar, S.A.U., priority 2002, dated 2008)

Tests used:
A-549 = assay: SRB colorimetric cell growth inhibition assay, A-549; format: cell-based; conditions: Homo sapiens, A549, A-549
Procedure, shortened: (§1)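 Human tumour cells continuously exposed to compound in 96-well culture; growth and viability quantified colorimetrically by sulforhodamine B staining. Mean ± SD from triplicate wells; GI (growth inhibition), TGI (total growth inhibition, cytostatic) and LC (cell killing, cytotoxic) parameters derived.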

H-MEC-1 = assay: SRB colorimetric cell growth inhibition assay, H-MEC-1; format: cell-based; conditions: Homo sapiens, HMEC-1, H-MEC-1
Procedure, shortened: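 Sulforhodamine B colorimetric assay of cell growth and viability, mean ± SD of triplicate wells. Parameters derived: GI (growth inhibition), TGI (total growth inhibition, cytostatic) and LC (cell killing, cytotoxic).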

PANC-1 = assay: SRB colorimetric cell growth inhibition assay, PANC-1; format: cell-based; conditions: Homo sapiens
Procedure, shortened: as §1

HT-29 = assay: SRB colorimetric cell growth inhibition assay, HT-29; format: cell-based; conditions: Homo sapiens
Procedure, shortened: as §1

SK-MEL-28 = assay: SRB colorimetric cell growth inhibition assay, SK-MEL-28; format: cell-based; conditions: Homo sapiens, SK-MEL-28, MEL-28
Procedure, shortened: as §1

DU-145 = assay: SRB colorimetric cell growth inhibition assay, DU-145; format: cell-based; conditions: Homo sapiens
Procedure, shortened: as §1

SK-BR-3 = assay: SRB colorimetric cell growth inhibition assay, SK-BR-3; format: cell-based; conditions: Homo sapiens
Procedure, shortened: as §1

K-562 = assay: SRB colorimetric cell growth inhibition assay, K-562; format: cell-based; conditions: Homo sapiens, K562, K-562
Procedure, shortened: as §1

IGROV = assay: SRB colorimetric cell growth inhibition assay, IGROV; format: cell-based; conditions: Homo sapiens, IGROV
Procedure, shortened: as §1

human topoisomerase I = target: T1, human topoisomerase I (Homo sapiens, UniProt P11387); assay: Topoisomerase I DNA relaxation assay (supercoiled plasmid DNA); format: biochemical; conditions: supercoiled plasmid DNA, each compound tested at 1 μM, agarose gel with ethidium bromide
T1 sequence (P11387 1-765): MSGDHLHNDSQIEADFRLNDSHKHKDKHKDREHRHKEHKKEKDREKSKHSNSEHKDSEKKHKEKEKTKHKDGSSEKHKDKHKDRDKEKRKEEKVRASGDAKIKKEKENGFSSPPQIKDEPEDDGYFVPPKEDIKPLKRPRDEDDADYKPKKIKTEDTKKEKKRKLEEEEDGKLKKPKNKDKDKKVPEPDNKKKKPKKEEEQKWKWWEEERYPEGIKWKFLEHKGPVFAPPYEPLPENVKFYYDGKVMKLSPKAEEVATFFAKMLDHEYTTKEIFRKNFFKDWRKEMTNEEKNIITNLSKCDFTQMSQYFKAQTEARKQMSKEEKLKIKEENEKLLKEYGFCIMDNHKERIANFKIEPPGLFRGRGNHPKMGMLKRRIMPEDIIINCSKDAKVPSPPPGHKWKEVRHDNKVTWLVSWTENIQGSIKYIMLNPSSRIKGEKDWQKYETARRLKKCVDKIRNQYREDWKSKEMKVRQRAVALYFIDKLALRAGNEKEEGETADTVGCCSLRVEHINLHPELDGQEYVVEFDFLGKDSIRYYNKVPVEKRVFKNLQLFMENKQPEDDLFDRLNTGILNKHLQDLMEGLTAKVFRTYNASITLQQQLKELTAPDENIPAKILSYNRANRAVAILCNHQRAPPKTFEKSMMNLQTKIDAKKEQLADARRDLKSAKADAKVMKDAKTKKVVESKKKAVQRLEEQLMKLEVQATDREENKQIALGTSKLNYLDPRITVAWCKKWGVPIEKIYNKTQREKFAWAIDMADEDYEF
Procedure, shortened: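 Supercoiled plasmid DNA was relaxed by human topoisomerase I with or without test compound at 1 μM. Products were resolved by agarose gel electrophoresis with ethidium bromide staining.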

LoVo = assay: SRB colorimetric cell growth inhibition assay, LoVo; format: cell-based; conditions: Homo sapiens
Procedure, shortened: as §1

LoVo-Dox = assay: SRB colorimetric cell growth inhibition assay, LoVo-Dox (MDR); format: cell-based; conditions: Homo sapiens, LOVO-DOX
Procedure, shortened: as §1

IGROV-ET = assay: SRB colorimetric cell growth inhibition assay, IGROV-ET (ET-743 resistant); format: cell-based; conditions: Homo sapiens, IGROV-ET
Procedure, shortened: as §1

LNCaP = assay: SRB colorimetric cell growth inhibition assay, LNCaP; format: cell-based; conditions: Homo sapiens, LNCaP, LN-caP
Procedure, shortened: as §1

## COc1cc(-c2c3n(c4c(=O)oc5cc(OC(=O)[C@H](NC(=O)OC(C)(C)C)C(C)C)c(OC)cc5c24)CCc2cc(OC(=O)[C@H](NC(=O)OC(C)(C)C)C(C)C)c(OC)cc2-3)ccc1OC(=O)[C@H](NC(=O)OC(C)(C)C)C(C)C [Compound 34]
A-549; GI=growth inhibition, read-out: GI50 A-549
  GI50: 1.47 µM
A-549; LC=cell killing (cytotoxic effect), read-out: LC50 A-549
  CC50: 9.1 µM
A-549; TGI=total growth inhibition (cytostatic effect), read-out: TGI A-549
  IC (TGI): 3.71 µM
H-MEC-1; GI=growth inhibition, read-out: GI50 H-MEC-1
  GI50: 0.244 µM
H-MEC-1; total growth inhibition (cytostatic effect), read-out: TGI H-MEC-1
  IC (TGI): 0.653 µM
PANC-1; PANC-1, PANC-1, LC=cell killing (cytotoxic effect), read-out: LC50 PANC-1
  CC50: 9.1 µM
PANC-1; PANC-1, PANC-1, TGI=total growth inhibition (cytostatic effect), read-out: TGI PANC-1
  IC (TGI): 0.992 µM
PANC-1; PANC-1, GI=growth inhibition, read-out: GI50 PANC-1
  GI50: 0.301 µM
HT-29; HT-29, HT-29, LC=cell killing (cytotoxic effect), read-out: LC50 HT-29
  CC50: 9.1 µM
HT-29; HT-29, GI=growth inhibition, read-out: GI50 HT-29
  GI50: 1.16 µM
HT-29; HT-29, TGI=total growth inhibition (cytostatic effect), read-out: TGI HT-29
  IC (TGI): 5.39 µM
SK-MEL-28; GI=growth inhibition, read-out: GI50 MEL-28
  GI50: 1.36 µM
SK-MEL-28; cell killing (cytotoxic effect), read-out: LC50 MEL-28
  CC50: 5.58 µM
SK-MEL-28; total growth inhibition (cytostatic effect), read-out: TGI MEL-28
  IC (TGI): 2.76 µM
DU-145; DU-145, DU-145, cell killing (cytotoxic effect), read-out: LC50 DU-145
  CC50: 6.5 µM
DU-145; DU-145, GI=growth inhibition, read-out: GI50 DU-145
  GI50: 0.196 µM
DU-145; DU-145, total growth inhibition (cytostatic effect), read-out: TGI DU-145
  IC (TGI): 0.588 µM
SK-BR-3; SK-BR-3, SK-BR-3, cell killing (cytotoxic effect), read-out: LC50 SK-BR-3
  CC50: 8.95 µM
SK-BR-3; SK-BR-3, GI=growth inhibition, read-out: GI50 SK-BR-3
  GI50: 1.18 µM
SK-BR-3; SK-BR-3, total growth inhibition (cytostatic effect), read-out: TGI SK-BR-3
  IC (TGI): 3.25 µM
K-562; GI=growth inhibition, read-out: GI50 K-562
  GI50: 1.04 µM
K-562; LC=cell killing (cytotoxic effect), read-out: LC50 K-562
  CC50: 6.62 µM
K-562; TGI=total growth inhibition (cytostatic effect), read-out: TGI K-562
  IC (TGI): 2.61 µM
IGROV; cell killing (cytotoxic effect), read-out: LC50 IGROV
  CC50: 8.74 µM
IGROV; GI=growth inhibition, read-out: GI50 IGROV
  GI50: 0.307 µM
IGROV; total growth inhibition (cytostatic effect), read-out: TGI IGROV
  IC (TGI): 2.11 µM
Human topoisomerase I
  stimulation of DNA cleavage by topoisomerase I / inhibition of topoisomerase I (nicked DNA band) in DNA relaxation assay: No effect
LoVo; LoVo, LC=cell killing (cytotoxic effect), read-out: LC50 LOVO
  CC50: 9.1 µM
LoVo; LOVO, GI=growth inhibition, read-out: GI50 LOVO
  GI50: 0.84 µM
LoVo; LOVO, TGI=total growth inhibition (cytostatic effect), read-out: TGI LOVO
  IC (TGI): 4.02 µM
LoVo-Dox; GI=growth inhibition, read-out: GI50 LOVO-DOX
  GI50: 9.1 µM
LoVo-Dox; LC=cell killing (cytotoxic effect), read-out: LC50 LOVO-DOX
  CC50: 9.1 µM
LoVo-Dox; TGI=total growth inhibition (cytostatic effect), read-out: TGI LOVO-DOX
  IC (TGI): 9.1 µM
IGROV-ET; GI=growth inhibition, read-out: GI50 IGROV-ET
  GI50: 2.07 µM
IGROV-ET; cell killing (cytotoxic effect), read-out: LC50 IGROV-ET
  CC50: 9.1 µM
IGROV-ET; total growth inhibition (cytostatic effect), read-out: TGI IGROV-ET
  IC (TGI): 4.63 µM
LNCaP; GI=growth inhibition, read-out: GI50 LN-caP
  GI50: 0.461 µM
LNCaP; cell killing (cytotoxic effect), read-out: LC50 LN-caP
  CC50: 4.11 µM
LNCaP; total growth inhibition (cytostatic effect), read-out: TGI LN-caP
  IC (TGI): 1.57 µM
